Holding throughout (assay): Kinase selectivity, DiscoverX scanMAX Kinase assay panel (% control)
Common to all, as to type: binding

The target of experiment [1] is T1, kinases of the scanMAX Kinase assay panel (Homo sapiens, UniProt O60674).
T1 construct: purchased DiscoverX Co. (contract measurement) scanMAX Kinase assay panel
The note with it: JAK2(JH1domain-catalytic); 1 uM. In short, it runs like this:
(§1)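 Percent of control computed as (compound − positive control)/(negative control − positive control) × 100, DMSO defining 100% and positive control 0%. Each panel kinase exposed to 1 uM compound; values under 35% taken to mean the compound acts on that kinase.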

The target of experiment [2] is T2, kinases of the scanMAX Kinase assay panel (Homo sapiens, UniProt P51817).
T2 construct: purchased DiscoverX Co. (contract measurement) scanMAX Kinase assay panel
T2 sequence (P51817 1-358): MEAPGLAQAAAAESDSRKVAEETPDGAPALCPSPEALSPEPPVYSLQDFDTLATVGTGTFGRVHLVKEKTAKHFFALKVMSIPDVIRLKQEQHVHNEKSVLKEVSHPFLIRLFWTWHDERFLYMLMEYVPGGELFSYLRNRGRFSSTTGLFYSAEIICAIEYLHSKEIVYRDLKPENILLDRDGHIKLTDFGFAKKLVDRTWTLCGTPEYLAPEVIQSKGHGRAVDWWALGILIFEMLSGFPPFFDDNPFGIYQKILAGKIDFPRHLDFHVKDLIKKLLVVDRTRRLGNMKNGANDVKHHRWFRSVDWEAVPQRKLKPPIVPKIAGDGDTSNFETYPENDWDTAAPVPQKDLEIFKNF
The note with it: PRKX; 1 uM. Put shortly:
as §1

For experiment [3], the target named is T3, kinases of the scanMAX Kinase assay panel (Homo sapiens, UniProt P51956).
T3 construct: purchased DiscoverX Co. (contract measurement) scanMAX Kinase assay panel
T3 sequence (P51956 1-506): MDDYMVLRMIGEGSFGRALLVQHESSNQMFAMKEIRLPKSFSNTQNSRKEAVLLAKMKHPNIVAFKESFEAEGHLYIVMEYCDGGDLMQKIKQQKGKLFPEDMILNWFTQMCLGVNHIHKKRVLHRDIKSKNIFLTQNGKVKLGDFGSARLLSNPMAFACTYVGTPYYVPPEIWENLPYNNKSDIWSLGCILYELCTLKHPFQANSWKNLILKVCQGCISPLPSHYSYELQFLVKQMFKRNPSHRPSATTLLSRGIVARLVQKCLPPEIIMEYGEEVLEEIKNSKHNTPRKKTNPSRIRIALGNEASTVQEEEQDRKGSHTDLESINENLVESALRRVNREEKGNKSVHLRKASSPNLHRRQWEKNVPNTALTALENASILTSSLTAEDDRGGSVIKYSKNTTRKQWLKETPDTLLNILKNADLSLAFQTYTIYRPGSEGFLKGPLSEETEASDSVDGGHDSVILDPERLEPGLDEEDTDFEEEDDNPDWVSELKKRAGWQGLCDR
The note with it: NEK3; 1 uM. In short, it runs like this:
as §1

Experiment [4] concerns the target T4, kinases of the scanMAX Kinase assay panel (Homo sapiens, UniProt P53355).
T4 construct: purchased DiscoverX Co. (contract measurement) scanMAX Kinase assay panel
The note with it: DAPK1; 1 uM. Put shortly:
as §1

The target in experiment [5] is T5, kinases of the scanMAX Kinase assay panel (Homo sapiens, UniProt Q15759).
T5 construct: purchased DiscoverX Co. (contract measurement) scanMAX Kinase assay panel
The note with it: p38-beta; 1 uM. Put shortly: as §1

Experiment [6] concerns the target T6, kinases of the scanMAX Kinase assay panel (Homo sapiens, UniProt Q86Z02).
T6 construct: purchased DiscoverX Co. (contract measurement) scanMAX Kinase assay panel
The note with it: HIPK1; 1 uM. Put shortly: as §1

Experiment [7] concerns the target T7, kinases of the scanMAX Kinase assay panel (Homo sapiens, UniProt Q8N752).
T7 construct: purchased DiscoverX Co. (contract measurement) scanMAX Kinase assay panel
T7 sequence (Q8N752 1-337): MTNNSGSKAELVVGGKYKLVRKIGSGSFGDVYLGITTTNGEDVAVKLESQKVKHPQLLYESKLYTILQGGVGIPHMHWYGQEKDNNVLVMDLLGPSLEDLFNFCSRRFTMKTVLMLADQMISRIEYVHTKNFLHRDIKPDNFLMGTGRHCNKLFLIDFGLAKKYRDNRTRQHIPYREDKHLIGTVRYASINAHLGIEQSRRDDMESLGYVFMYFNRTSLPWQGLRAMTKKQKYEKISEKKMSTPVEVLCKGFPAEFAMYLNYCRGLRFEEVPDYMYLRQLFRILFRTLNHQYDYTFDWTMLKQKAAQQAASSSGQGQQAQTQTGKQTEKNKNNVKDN
The note with it: CSNK1A1L; 1 uM. Put shortly: as §1

In experiment [8] the target is T8, kinases of the scanMAX Kinase assay panel (Homo sapiens, UniProt Q9UHD2).
T8 construct: purchased DiscoverX Co. (contract measurement) scanMAX Kinase assay panel
T8 sequence (Q9UHD2 1-729): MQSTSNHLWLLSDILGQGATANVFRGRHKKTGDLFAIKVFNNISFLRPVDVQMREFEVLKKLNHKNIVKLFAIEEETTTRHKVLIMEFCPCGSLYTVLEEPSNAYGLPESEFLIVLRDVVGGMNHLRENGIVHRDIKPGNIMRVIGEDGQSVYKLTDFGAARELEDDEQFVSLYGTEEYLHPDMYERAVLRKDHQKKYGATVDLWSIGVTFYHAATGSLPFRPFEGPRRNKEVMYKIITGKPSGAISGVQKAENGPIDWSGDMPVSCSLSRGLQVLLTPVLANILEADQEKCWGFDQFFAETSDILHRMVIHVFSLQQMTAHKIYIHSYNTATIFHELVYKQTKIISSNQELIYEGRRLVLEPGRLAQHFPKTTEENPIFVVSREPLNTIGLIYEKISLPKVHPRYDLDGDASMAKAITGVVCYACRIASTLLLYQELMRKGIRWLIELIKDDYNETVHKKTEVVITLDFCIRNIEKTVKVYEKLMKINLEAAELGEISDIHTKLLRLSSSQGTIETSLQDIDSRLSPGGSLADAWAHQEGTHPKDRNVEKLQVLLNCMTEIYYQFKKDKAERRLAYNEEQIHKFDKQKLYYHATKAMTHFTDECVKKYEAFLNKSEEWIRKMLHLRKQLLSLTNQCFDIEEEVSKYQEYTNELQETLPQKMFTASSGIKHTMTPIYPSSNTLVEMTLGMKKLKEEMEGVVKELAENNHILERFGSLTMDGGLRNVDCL
The note with it: kinase TBK1; 1 uM in DMSO. Put shortly:
as §1

T1 sequence (O60674 whole entry): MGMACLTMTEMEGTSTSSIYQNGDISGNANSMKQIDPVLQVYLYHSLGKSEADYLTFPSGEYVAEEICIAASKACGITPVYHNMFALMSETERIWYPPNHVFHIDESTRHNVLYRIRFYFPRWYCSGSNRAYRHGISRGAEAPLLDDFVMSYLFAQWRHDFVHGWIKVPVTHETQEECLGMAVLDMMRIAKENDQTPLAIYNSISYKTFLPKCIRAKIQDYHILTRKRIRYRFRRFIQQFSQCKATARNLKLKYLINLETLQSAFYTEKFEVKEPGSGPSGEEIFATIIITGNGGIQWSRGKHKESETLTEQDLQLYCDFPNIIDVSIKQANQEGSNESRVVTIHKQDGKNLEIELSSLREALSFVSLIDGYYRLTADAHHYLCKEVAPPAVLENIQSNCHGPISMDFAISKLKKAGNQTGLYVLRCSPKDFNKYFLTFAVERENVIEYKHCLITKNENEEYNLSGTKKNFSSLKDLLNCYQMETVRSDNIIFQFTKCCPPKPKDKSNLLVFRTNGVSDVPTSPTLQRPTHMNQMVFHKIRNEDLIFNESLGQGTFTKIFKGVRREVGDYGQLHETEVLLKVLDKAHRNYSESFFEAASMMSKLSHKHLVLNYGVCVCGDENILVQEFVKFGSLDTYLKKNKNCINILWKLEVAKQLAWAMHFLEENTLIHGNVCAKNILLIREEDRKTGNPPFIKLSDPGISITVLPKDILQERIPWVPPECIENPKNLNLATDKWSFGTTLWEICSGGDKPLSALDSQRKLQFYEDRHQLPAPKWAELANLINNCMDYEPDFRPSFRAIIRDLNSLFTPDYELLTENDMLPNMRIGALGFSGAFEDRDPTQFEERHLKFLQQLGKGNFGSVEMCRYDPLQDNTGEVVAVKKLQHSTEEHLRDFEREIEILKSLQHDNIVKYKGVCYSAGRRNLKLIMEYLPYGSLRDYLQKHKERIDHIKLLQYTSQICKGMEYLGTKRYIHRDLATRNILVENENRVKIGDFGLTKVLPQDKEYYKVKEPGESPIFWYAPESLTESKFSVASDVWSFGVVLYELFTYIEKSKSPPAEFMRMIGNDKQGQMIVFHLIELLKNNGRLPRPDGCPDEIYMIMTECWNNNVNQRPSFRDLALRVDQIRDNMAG
T6 sequence (Q86Z02 whole entry): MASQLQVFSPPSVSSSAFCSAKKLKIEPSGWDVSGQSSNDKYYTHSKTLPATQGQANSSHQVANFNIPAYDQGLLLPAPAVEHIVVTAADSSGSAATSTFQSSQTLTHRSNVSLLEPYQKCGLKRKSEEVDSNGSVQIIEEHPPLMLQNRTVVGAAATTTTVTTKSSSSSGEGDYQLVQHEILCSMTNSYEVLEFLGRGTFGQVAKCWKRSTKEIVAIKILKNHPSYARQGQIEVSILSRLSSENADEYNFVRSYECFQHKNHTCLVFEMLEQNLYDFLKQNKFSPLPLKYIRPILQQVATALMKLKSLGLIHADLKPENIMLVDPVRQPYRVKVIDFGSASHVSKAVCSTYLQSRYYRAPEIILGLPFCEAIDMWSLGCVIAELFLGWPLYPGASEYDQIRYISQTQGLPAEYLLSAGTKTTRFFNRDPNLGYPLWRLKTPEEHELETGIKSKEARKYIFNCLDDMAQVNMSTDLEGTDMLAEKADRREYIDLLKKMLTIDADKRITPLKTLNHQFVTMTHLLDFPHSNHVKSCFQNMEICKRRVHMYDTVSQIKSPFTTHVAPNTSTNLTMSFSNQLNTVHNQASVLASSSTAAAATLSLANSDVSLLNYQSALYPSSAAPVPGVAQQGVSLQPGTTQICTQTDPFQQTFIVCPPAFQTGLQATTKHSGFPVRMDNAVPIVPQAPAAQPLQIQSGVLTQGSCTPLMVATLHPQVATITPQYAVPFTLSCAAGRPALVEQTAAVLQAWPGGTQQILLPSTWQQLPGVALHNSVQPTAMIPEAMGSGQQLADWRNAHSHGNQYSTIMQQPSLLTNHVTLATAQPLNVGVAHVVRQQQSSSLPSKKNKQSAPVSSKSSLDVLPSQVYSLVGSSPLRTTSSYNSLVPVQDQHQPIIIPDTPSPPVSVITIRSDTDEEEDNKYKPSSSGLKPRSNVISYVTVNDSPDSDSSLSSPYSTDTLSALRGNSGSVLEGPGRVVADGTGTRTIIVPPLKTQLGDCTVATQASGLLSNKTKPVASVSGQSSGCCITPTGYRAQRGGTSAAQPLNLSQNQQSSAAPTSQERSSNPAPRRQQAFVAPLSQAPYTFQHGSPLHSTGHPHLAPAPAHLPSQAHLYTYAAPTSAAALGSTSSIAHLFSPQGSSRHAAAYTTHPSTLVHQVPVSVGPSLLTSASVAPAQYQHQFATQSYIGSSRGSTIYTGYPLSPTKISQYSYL
T5 sequence (Q15759 whole entry): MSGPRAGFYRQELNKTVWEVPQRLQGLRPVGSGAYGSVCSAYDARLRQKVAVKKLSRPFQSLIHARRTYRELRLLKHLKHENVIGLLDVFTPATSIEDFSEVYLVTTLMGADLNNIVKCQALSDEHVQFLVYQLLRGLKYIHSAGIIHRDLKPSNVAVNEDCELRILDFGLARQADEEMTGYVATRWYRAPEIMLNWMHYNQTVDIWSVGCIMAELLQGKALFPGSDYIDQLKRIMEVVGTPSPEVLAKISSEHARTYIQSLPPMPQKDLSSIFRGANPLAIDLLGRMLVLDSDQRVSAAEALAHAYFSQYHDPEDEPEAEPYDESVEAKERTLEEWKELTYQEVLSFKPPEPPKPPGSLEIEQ
T4 sequence (P53355 whole entry): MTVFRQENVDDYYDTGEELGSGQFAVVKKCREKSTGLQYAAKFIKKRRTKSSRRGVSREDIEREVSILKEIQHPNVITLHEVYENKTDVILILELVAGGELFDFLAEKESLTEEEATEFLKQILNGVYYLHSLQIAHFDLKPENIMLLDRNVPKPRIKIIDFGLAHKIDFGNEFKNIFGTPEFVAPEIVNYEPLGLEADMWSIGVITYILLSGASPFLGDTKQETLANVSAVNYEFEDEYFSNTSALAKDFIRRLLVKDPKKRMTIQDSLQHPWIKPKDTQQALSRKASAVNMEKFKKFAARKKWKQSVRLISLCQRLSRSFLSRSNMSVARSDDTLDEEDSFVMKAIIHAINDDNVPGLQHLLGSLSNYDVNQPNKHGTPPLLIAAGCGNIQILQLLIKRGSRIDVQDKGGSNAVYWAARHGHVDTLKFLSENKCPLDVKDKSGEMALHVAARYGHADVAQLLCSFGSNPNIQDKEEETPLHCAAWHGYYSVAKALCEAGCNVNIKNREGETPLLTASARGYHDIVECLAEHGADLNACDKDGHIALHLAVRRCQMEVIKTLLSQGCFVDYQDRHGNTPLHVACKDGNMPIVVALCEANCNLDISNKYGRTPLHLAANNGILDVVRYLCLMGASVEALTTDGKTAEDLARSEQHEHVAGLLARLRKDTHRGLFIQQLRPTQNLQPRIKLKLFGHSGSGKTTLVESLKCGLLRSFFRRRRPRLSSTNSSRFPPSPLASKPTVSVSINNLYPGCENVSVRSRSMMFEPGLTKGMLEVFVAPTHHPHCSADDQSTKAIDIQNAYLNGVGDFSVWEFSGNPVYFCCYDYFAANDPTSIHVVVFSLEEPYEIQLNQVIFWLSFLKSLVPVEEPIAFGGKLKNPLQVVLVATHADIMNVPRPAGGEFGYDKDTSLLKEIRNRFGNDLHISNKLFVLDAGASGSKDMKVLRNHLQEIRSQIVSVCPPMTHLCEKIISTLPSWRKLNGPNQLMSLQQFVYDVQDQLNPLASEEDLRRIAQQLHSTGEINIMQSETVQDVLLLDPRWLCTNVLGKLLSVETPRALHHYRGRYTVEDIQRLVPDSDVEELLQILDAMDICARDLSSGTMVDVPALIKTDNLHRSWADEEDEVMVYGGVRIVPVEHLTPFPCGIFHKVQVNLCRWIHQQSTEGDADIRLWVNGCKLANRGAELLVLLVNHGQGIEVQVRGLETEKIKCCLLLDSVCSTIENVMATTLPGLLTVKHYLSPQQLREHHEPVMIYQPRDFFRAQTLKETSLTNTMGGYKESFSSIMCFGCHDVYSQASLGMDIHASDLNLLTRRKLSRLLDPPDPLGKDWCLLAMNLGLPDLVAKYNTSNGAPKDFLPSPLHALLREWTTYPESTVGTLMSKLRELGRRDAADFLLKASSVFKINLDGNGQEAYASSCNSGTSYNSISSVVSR

Consider `CNc1nc(Nc2ccc(C(=O)N3CCOCC3)cc2OC)nc2[nH]cc(C#N)c12` [Example 1, 2-((2-methoxy-4-(morpholine-4-carbonyl)phenyl)amino)-4-(methylamino)-7H-pyrrolo[2,3-d]pyrimidine-5-carbonitrile], for which the remaining binding at 1 µM in experiment [1] came out at 83%; in experiment [2] it was 82%; in experiment [3], 70%; in experiment [4], 8.5%; in experiment [5] it was 98%; in experiment [6], 61%. Further, the remaining binding at 1 µM in experiment [7] was 34%; in experiment [8], 85%.

For `CC1(Nc2nc(Nc3cnn([C@H]4CCN(C5COC5)C[C@@H]4F)c3Cl)nc3[nH]cc(C#N)c23)CC1` [Example 52, 2-((5-chloro-1-((3S,4S)-3-fluoro-1-(oxetane-3-yl)piperidine-4-yl)-1H-pyrazole-4-yl)amino)((1-methylcyclopropyl)amino)-7H-pyrrolo[2,3-d]pyrimidine-5-carbonitrile], the remaining binding at 1 µM in experiment [1] turned out to be 0%; in experiment [2] it was 89%; in experiment [3] it was 96%; in experiment [4] it was 12%; in experiment [5], 92%; in experiment [6], 18%. The figures for the remaining binding at 1 µM in experiment [7] and in experiment [8] were 0.85% and 4.8%, respectively.

With `CCNc1nc(Nc2ccc(C(=O)N3CCC(N4CCOCC4)CC3)cc2OC)nc2[nH]cc(C(F)(F)F)c12` [Example 104, (4-((4-(ethylamino)-5-(trifluoromethyl)-7H-pyrrolo[2,3-d]pyrimidine-2-yl)amino)-3-methoxyphenyl)(4-morpholinopiperidine-1-yl)methanone], the remaining binding at 1 µM is 100% in experiment [1]; 81% in experiment [2]; 82% in experiment [3]; 49% in experiment [4]; 100% in experiment [5]; 13% in experiment [6]. Besides, the figures for the remaining binding at 1 µM in experiment [7] and in experiment [8] were 15% and 84%, respectively.

(Values after patent US11208412B2 (DAEGU-GYEONGBUK MEDICAL INNOVATION FOUNDATION, priority 2017, dated 2021).)
